Laboratory results reported in patent publication US6417212B1, “Modulators of peroxisome proliferator activated receptors” (Eli Lilly & Company, priority 1999, dated 2002).

What was measured:
Hu apoAI transgenic mice = experiment: Evaluation of triglyceride and cholesterol levels in Hu apoAI transgenic mice; format: in vivo; details: for change in vivo at 30 mg/kg / inhibition in vivo at 30 mg/kg: Mus musculus, 168 h, 30 mg/kg daily oral gavage for 7 days; for change in vivo at 30 mg/kg: pooled sera, read-out: % HDLc Increase (serum, FPLC area under the curve, over vehicle); for inhibition in vivo at 30 mg/kg: serum 3 hours after dosing on day 7, read-out: % Triglyceride Decrease (serum, over mice receiving vehicle)
Experimental: After an acclimation period of 2 weeks, animals were individually identified by ear notches, weighed, and assigned to groups based on body weight. Beginning the following morning, mice were dosed daily by oral gavage for 7 days using a 20 gauge, 11⁄2 curved disposable feeding needle (Popper & Sons). […] Prior to termination on day 7, mice were weighed and dosed. Three hours after dosing, animals were anesthetized by inhalation of isoflurane (2-4%; Abbott Laboratories, Chicago, Ill.) and blood obtained via cardiac puncture (0.7-1.0 ml). Whole blood was transferred to serum separator tubes (Vacutainer SST), chilled on ice, and permitted to clot. Serum was obtained after centrifugation at 4° C. and frozen until analysis for triglycerides, total cholesterol, compound levels, and serum lipoprotein profile by fast protein liquid chromatography (FPLC) coupled to an inline detection system. After sacrifice by cervical dislocation, the liver, heart and epididymal fat pads were excised and weighed. […] The percentage decrease in triglyceride serum levels in mice receiving a compound of the invention over mice receiving vehicle are reported in Table 2. […] The absorbance of the dye produced is linearly related to the analyte in the sample. The assays were further modified in our laboratory for use in a 96 well format. […] An additional aliquot of sample, pipetted to a third well and diluted in 200 μl water, provided a blank for each specimen. […] All samples from an experiment were assayed at the same time to minimize inter-assay variability. Serum lipoproteins were separated and cholesterol quantitated with an in-line detection system. […] The change in voltage corresponding to change in cholesterol concentration was plotted vs time and the area under the curve corresponding to the elution of VLDL, LDL and HDL was calculated using Perkin Elmer Turbochrome software.

db/db mice = experiment: Evaluation of glucose levels in db/db mice; format: in vivo; details: Mus musculus, 168 h; 30 mg/kg daily oral gavage for 7 days; 100% = glucose not different from lean values; read-out: Glucose Normalisation
Experimental: After an acclimation period of 2 weeks, animals were individually identified by ear notches, weighed, and bled via the tail vein for determination of initial glucose levels. Blood was collected (100 μl) from unfasted animals by wrapping each mouse in a towel, cutting the tip of the tail with a scalpel, and milking blood from the tail into a heparinized capillary tube (Fisher) balanced on the edge of the bench. Sample was discharged into a heparinized microtainer with gel separator (VWR) and retained on ice. Plasma was obtained after centrifugation at 4° C. and glucose measured immediately. Remaining plasma was frozen until the completion of the experiment, when glucose and triglycerides were assayed in all samples. Animals were grouped based on initial glucose levels and body weights. Beginning the following morning, mice were dosed daily by oral gavage for 7 days using a 20 gauge, 1½″ curved disposable feeding needle. […] On day 7, mice were weighed and bled (tail vein) 3 hours after dosing. Twenty-four hours after the 7th dose (i.e., day 8), animals were bled again (tail vein). Samples obtained from conscious animals on days 0, 7 and 8 were assayed for glucose. After the 24 hour bleed, animals were weighed and dosed for the final time. Three hours after dosing on day 8, animals were anesthetized by inhalation of isoflurane and blood obtained via cardiac puncture (0.5-0.7 ml). Whole blood was transferred to serum separator tubes, chilled on ice and permitted to clot. Serum was obtained after centrifugation at 4° C. and frozen until analysis for compound levels. After sacrifice by cervical dislocation, the liver, heart and epididymal fat pads were excised and weighed.
The absorbance of the dye produced is linearly related to the analyte in the sample. The assays were further modified in our laboratory for use in a 96 well format. […] An additional aliquot of sample, pipetted to a third well and diluted in 200 μl water, provided a blank for each specimen. […] Sample absorbances were compared to a standard curve (100-800, 10-500, and 100-400 mg/dl for glucose, triglycerides and total cholesterol, respectively). […] All samples from an experiment were assayed at the same time to minimize inter-assay variability.

huPPARα = experiment: Cotransfection assay in CV-1 cells, huPPARα (GAL4 chimeric system); format: cell-based, human; details: luciferase reporter, relative to PPARα agonist reference molecule
Experimental: DNA-dependent binding (ABCD binding) was carried out using SPA technology with PPAR receptors. Tritium-labeled PPARγ and PPARα agonists were used as radioligands for generating displacement curves and IC50 values with compounds of the invention. Cotransfection assays were carried out in CV-1 cells. The reporter plasmid contained an acylCoA oxidase (AOX) PPRE and TK promoter upstream of the luciferase reporter cDNA. Appropriate PPARs and RXRα were constitutively expressed using plasmids containing the CMV promoter. For PPARα and PPARβ, interference by endogenous PPARγ in CV-1 cells was an issue. In order to eliminate such interference, a GAL4 chimeric system was used in which the DNA binding domain of the transfected PPAR was replaced by that of GAL4, and the GAL4 response element was utilized in place of the AOX PPRE. Cotransfection efficacy was determined relative to PPARα agonist and […] reference molecules. Efficacies were determined by computer fit to a concentration-response curve, or in some cases at a single high concentration of agonist (10 μM). For binding or cotransfection studies with receptors other than PPARs, similar assays were carried out using appropriate ligands, receptors, reporter constructs, etc., for that particular receptor.
These studies were carried out to evaluate the ability of compounds of the invention to bind to and/or activate various nuclear transcription factors, particularly huPPARα (“hu” indicates “human”) and huPPARγ. These studies provide in vitro data concerning efficacy and selectivity of compounds of the invention. Furthermore, binding and cotransfection data for compounds of the invention were compared with corresponding data for marketed compounds that act on either huPPARα or huPPARγ.

[1] = fenofibrate 100 mg/kg oral, 7 days, vs vehicle

SMILES	change in vivo at 30 mg/kg (Hu apoAI transgenic mice) [%]	inhibition in vivo at 30 mg/kg (Hu apoAI transgenic mice) [%]	inhibition in vivo at 30 mg/kg (db/db mice) [%]	other results
Cc1oc(-c2ccc(-c3ccccc3)cc2)nc1CCOc1ccc(OC(C)(C)C(=O)O)cc1 [Example 1, 2-{4-[2-(2-Biphenyl-4-yl-5-methyloxazol-4-yl)ethoxy]phenoxy}-2-methylpropionic acid]	160	62.2	90	–
Cc1oc(-c2cccc(-c3ccccc3)c2)nc1CCOc1ccc(OC(C)(C)C(=O)O)cc1 [Example 3, 2-{4-[2-(2-Biphenyl-3-yl-5-methyloxazol-4-yl)ethoxy]phenoxy}-2-methylpropionic acid]	69	51.2	93	–
Cc1oc(-c2ccc(-c3cccc4ccccc34)cc2)nc1CCOc1ccc(OC(C)(C)C(=O)O)cc1 [Example 8, 2-Methyl-2-(4-{2-[5-methyl-2-(4-naphthalen-1-ylphenyl)oxazol-4-yl]ethoxy}phenoxy)propionic acid]	41	31.8	19	–
Cc1oc(-c2ccc(-c3ccccc3C(F)(F)F)cc2)nc1CCOc1ccc(OC(C)(C)C(=O)O)cc1 [Example 12, 2-Methyl-2-(4-{2-[5-methyl-2-(2′-trifluoromethyl-biphenyl-4-yl)-oxazol-4-yl]-ethoxy}-phenoxy)propionic acid]	29	37.6	44	–
Cc1oc(-c2cccc(-c3ccccc3)c2)nc1CCOc1cccc(OC(C)(C)C(=O)O)c1 [Example 22, 2-{3-[2-(2-Biphenyl-3-yl-5-methyloxazol-4-yl)ethoxy]phenoxy}-2-methylpropionic acid]	191	73.6	102	–
Cc1cc(OCCc2nc(-c3ccc(-c4ccccc4)cc3)oc2C)ccc1OC(C)(C)C(=O)O [Example 24, 2-{4-[2-(2-Biphenyl-4-yl-5-methyloxazol-4-yl)-ethoxy]-2-methylphenoxy}-2-methylpropionic acid]	72	62.3	55	–
CCCCc1cc(OC(C)(C)C(=O)O)ccc1OCCc1nc(-c2ccc(-c3ccccc3)cc2)oc1C [Example 31, 2-{4-[2-(2-Biphenyl-4-yl-5-methyloxazol-4-yl)ethoxy]-3-butylphenoxy}-2-methylpropionic acid]	217	66.7	89	–
Cc1oc(-c2ccc(-c3ccccc3)cc2)nc1CCOc1ccc(OC(C)(C)C(=O)O)c(-c2ccccc2)c1 [Example 38, 2-{5-[2-(2-Biphenyl-4-yl-5-methyloxazol-4-yl)-ethoxy]-biphenyl-2-yloxy}-2-methyl-propionic acid]	34	53.3	59	–
Cc1oc(-c2ccc(-c3ccccc3)cc2)nc1CCOc1ccc(OC(C)(C)C(=O)O)c2ccccc12 [Example 48, 2-{4-[2-(2-Biphenyl-4-yl-5-methyloxazol-4-yl)ethoxy]naphthalen-1-yloxy}-2-methyl propionic acid]	89	43.7	31	–
Cc1oc(-c2cccc(-c3ccccc3)c2)nc1CCOc1ccc(OC(C)(C)C(=O)O)c2ccccc12 [Example 49, 2-{4-[2-(2-Biphenyl-3-yl-5-methyloxazol-4-yl)ethoxy]naphthalen-1-yloxy}-2-methyl propionic acid]	34	48.7	39	–
Cc1oc(-c2ccc(-c3ccccc3)cc2)nc1CCOc1ccc(OC(C)(C)C(=O)O)c2c1CCCC2 [Example 50, 2-{4-[2-(2-Biphenyl-4-yl-5-methyloxazol-4-yl)-ethoxy]-5,6,7,8-tetrahydronaphthalen-1-yloxy}-2-methyl propionic acid]	95	53.9	42	–
Cc1oc(-c2cccc(-c3ccccc3)c2)nc1CCOc1ccc(OC(C)(C)C(=O)O)c2c1CCCC2 [Example 51, 2-{4-[2-(2-Biphenyl-3-yl-5-methyloxazol-4-yl)-ethoxy]-5,6,7,8-tetrahydronaphthalen-1-yloxy}-2-methyl propionic acid]	53	41.6	31	–
CCCc1cc(OCCc2nc(-c3ccc(-c4ccccc4)cc3)oc2C)ccc1OC(C)(C)C(=O)O [Example 60, 2-{4-[2-(2-Biphenyl-4-yl-5-methyloxazol-4-yl)-ethyloxy]-2-propylphenoxy}-2-methyl-propionic acid]	38	40.8	68	–
CCCc1cc(OCCc2nc(-c3ccc(-c4ccccc4)cc3)oc2C)ccc1OCC(=O)O [Example 62, {4-[2-(2-Biphenyl-4-yl-5-methyl-oxazol-4-yl)-ethoxy]-2-propyl-phenoxy}-acetic acid]	56	45.5	36	–
Cc1c(C)c2c(c(C)c1O)CCC(C)(COc1ccc(CC3SC(=O)NC3=O)cc1)O2 (stereo not shown) [Troglitazone, reference compound]	–	–	–	huPPARα CTF Efficacy (huPPARα): 0%
CC(C)OC(=O)C(C)(C)Oc1ccc(C(=O)c2ccc(Cl)cc2)cc1 [fenofibrate, reference compound]	–	–	–	mean elevation of total serum cholesterol (Hu apoAI transgenic mice; [1]): 41%; mean percent increase of HDLc (Hu apoAI transgenic mice; [1]): 48%; mean reduction of triglycerides (Hu apoAI transgenic mice; [1]): 37%; HDLc peak area (FPLC) (Hu apoAI transgenic mice; fenofibrate 100 mg/kg oral, 7 days, vehicle 47-62 v-sec): 68-96 v-sec; average triglycerides values (Hu apoAI transgenic mice; fenofibrate 100 mg/kg oral, 7 days, vehicle 60-80 mg/dl): 33 to 58 mg/dL; average total serum cholesterol values (Hu apoAI transgenic mice; fenofibrate 100 mg/kg oral, 7 days, vehicle 148-180 mg/dl): 190 to 280 mg/dL
